This passage reports Kd results from article PMC10303200 (ACS Central Science, 2023).

This experiment deals with T1, PHA-E (Phaseolus vulgaris erythroagglutinin) (Phaseolus vulgaris, UniProt P05088).
T1 construct: purchased Vector Laboratories (Newark, CA, USA)
T1 sequence (P05088 22-275 limits assumed): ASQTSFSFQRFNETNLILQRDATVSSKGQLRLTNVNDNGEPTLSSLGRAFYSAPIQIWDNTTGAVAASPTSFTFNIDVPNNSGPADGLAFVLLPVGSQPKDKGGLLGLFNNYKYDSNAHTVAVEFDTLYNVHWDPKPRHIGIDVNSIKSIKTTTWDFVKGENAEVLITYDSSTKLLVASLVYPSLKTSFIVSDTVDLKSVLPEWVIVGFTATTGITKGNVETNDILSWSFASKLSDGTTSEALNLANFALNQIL
The class given is binding. The note with it: read-out: Kd (Native); pH 6.9.
With `CC(=O)N[C@H]1[C@H](O[C@H]2[C@H](O)[C@@H](NC(C)=O)C(O)O[C@@H]2CO)O[C@H](CO)[C@@H](O[C@@H]2O[C@H](CO[C@H]3O[C@H](CO)[C@@H](O)[C@H](O)[C@@H]3O[C@@H]3O[C@H](CO)[C@@H](O[C@@H]4O[C@H](CO)[C@H](O)[C@H](O)[C@H]4O)[C@H](O)[C@H]3NC(C)=O)[C@@H](O)[C@H](O[C@H]3O[C@H](CO)[C@@H](O)[C@H](O)[C@@H]3O[C@@H]3O[C@H](CO)[C@@H](O[C@@H]4O[C@H](CO)[C@H](O)[C@H](O)[C@H]4O)[C@H](O)[C@H]3NC(C)=O)[C@@H]2O)[C@@H]1O` (stereo partly drawn) [HexNAc4Hex5], the Kd amounted to 13.1 ± 0.8 µM. The same measure for `CC(=O)N[C@H]1[C@H](O[C@H]2[C@H](O)[C@@H](NC(C)=O)C(O)O[C@@H]2CO[C@@H]2O[C@@H](C)[C@@H](O)[C@@H](O)[C@@H]2O)O[C@H](CO)[C@@H](O[C@@H]2O[C@H](CO[C@H]3O[C@H](CO)[C@@H](O)[C@H](O)[C@@H]3O[C@@H]3O[C@H](CO)[C@@H](O)[C@H](O)[C@H]3NC(C)=O)[C@@H](O)[C@H](O[C@H]3O[C@H](CO)[C@@H](O)[C@H](O)[C@@H]3O[C@@H]3O[C@H](CO)[C@@H](O)[C@H](O)[C@H]3NC(C)=O)[C@@H]2O)[C@@H]1O` (stereo partly drawn) [HexNAc4Hex3Fuc1]: 18.6 ± 3.5 µM; for `CC(=O)N[C@H]1[C@H](O[C@H]2[C@H](O)[C@@H](NC(C)=O)C(O)O[C@@H]2CO[C@@H]2O[C@@H](C)[C@@H](O)[C@@H](O)[C@@H]2O)O[C@H](CO)[C@@H](O[C@@H]2O[C@H](CO[C@H]3O[C@H](CO)[C@@H](O)[C@H](O)[C@@H]3O[C@@H]3O[C@H](CO)[C@@H](O[C@@H]4O[C@H](CO)[C@H](O)[C@H](O)[C@H]4O)[C@H](O)[C@H]3NC(C)=O)[C@@H](O)[C@H](O[C@H]3O[C@H](CO)[C@@H](O)[C@H](O)[C@@H]3O[C@@H]3O[C@H](CO)[C@@H](O[C@@H]4O[C@H](CO)[C@H](O)[C@H](O)[C@H]4O)[C@H](O)[C@H]3NC(C)=O)[C@@H]2O)[C@@H]1O` (stereo partly drawn) [HexNAc4Hex5Fuc1]: 12.3 ± 3.6 µM.
